In patent US20110028401A1, “CRIPTO BLOCKING MOLECULES AND THERAPEUTIC USES THEREOF” (CONSIGLIO NAZIONALE DELLE RICERCHE, priority 2009, published 2011):

Tests used:
[1] = target: T1, Cripto/ALK-4 interaction (Mus musculus, UniProt P51865); assay: ELISA-based competition assay of Cripto/ALK-4 interaction; assay type: binding
T1 construct: the displacement of soluble recombinant Cripto from coated ALK-4 by the peptide pools was evaluated
Method: To improve the overall solubility of the resulting mixtures, D-Glutamic (D-Glu), corresponding to building block 4 (Table S1) was initially chosen as the common, N-terminal residue. The total complexity of the library was therefore of 30^2=900 different peptides. In the first step of, the deconvolution process, the peptide pools were tested with a molar excess of 30000-fold (calculated for each single peptide) over Cripto (8.6×10^−10 M; FIG. 2. S1). Once identified an active pool(s), a dose-dependent inhibition using 200-, 500-, 1000-, 5000-, 12500 and 30000 fold excess was performed to confirm the inhibitory property (FIG. 3. S2). The first active pool selected was that labelled as 4-23-X (X indicated random positions), where “23” identified the amino acid L-Cysteine(S-benzyl) [L-Cys(Bzl)] (FIG. 3. S2). […] To finally investigate the N-terminal position, where D-Glu was initially arbitrarily placed, 30 single peptides labelled as B-23-23 were synthesized and submitted to the final screening (FIG. 5. S4 (a)). […]
The screening was performed by an ELISA (Enzime-Linked Immunosorbent Assay) assay. […] Finally, the plate was developed with o-phenylendiammine peroxidase substrate (Sigma-Aldrich) and the absorbance was read at 490 nm on a microplate reader (Biorad Benchmark). […]

[2] = target: T2, Cripto protein (Mus musculus, UniProt P51865); assay: ELISA binding of recombinant Cripto to plate-coated peptide; settings: peptide coated at 50 μM; Cripto 50 to 200 ng/ml
T2 construct: made in house
Method: To evaluate the binding of Cripto BP to either Cripto or ALK-4 receptor, BP or control peptides (CP; 50 μM) were coated on the surface of a 96-well microtiter plate and incubated over night at 4° C. Wells were washed five times with PBS Tween (PBT) and the aspecific sites blocked for 3 h at RT with 1% Bovine Serum Albumin (BSA) in PBS, 180 μL/well. Wells were washed as above, and the recombinant form of either ALK-4-humanFc chimeric receptor or Cripto protein in PBT were added at the indicated concentrations and incubated for 1 h at 37° C. followed by 1 hr at RT. After washing with PBT, to evaluate the binding of Cripto to 26-23-23, rabbit anti-Cripto IgG (6 μg/ml) were added to the plates and incubated 1 h at 37° C. and 1 hr at RT. After washing in PBT, a goat anti-rabbit […] (Santa Crutz) was added to the plate (0.3 μg/ml) and incubated 1 h at RT. Finally, the plate was developed as reported above. To evaluate the binding of ALK4 to 26-23-23, the extracellular domain of ALK-4 receptor fused to human Fc (R&D Systems) was added at the indicated concentrations and a goat anti-human Fc (Jackson ImmunoResearch; 1:1000) was used.

[3] = system: Mouse ESC; assay: In vitro dopamine and DOPAC levels by HPLC after KCl; assay type: cell-based; settings: 14 days in vitro
Method: Dopamine release and turnover was determined in vitro using reverse phase high performance liquid chromatography (HPLC). Mouse ESC were differentiated in a 12 well plate according to the methodology depicted in FIG. 7(a), in the presence of either the Control peptide of Cripto BP. After 14 days in vitro, media was replaced with 200 ul of N2 media supplemented with 56 mM KCl for 30 min. The media was then collected and stabilized with 20 ul of buffer containing 0.4 M perchloric acid containing 7.9 mM sodium metabisulphate and 1.34 mM disodium EDTA. On the day of analysis the samples were centrifuged and the supernatant transferred to HPLC vials and placed in an autosampler for injection onto the HPLC. The HPLC consisted of a LC-20AT pump (Shimadzu), SIL-20A Autosampler (Shimadzu) and C18 reverse phase column (Bio-Rad, Hercules, USA). Detection was via a 3 mm VT-03 flow cell with glassy carbon working electrode (Antec Leyden) and Decade II Electrochemical Detector (Antec Leyden). The mobile phase consisted of 17% v/v methanol in purified deionized water containing 70 mM KH2PO4, 0.5 mM EDTA and 8.0 mM sulfonic acid, pH 3.0 and was run at a flow rate of 0.5 ml/min. DA turnover was expressed as the concentration of DOPAC to DA [DOPAC/DA]. Analysis was performed on triplicate wells on three independent differentiation experiments.

[4] = 56 mM KCl 30 min, compared to Control peptide

T1 sequence (P51865 18-156 limits assumed): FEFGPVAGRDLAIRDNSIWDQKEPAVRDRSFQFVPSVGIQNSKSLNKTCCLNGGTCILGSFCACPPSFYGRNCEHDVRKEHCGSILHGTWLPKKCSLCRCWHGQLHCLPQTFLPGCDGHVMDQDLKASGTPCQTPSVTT
T2 sequence (P51865 18-156 limits assumed): as above

C[S+]([O-])CCC(N)C(=O)N[C@@H](CSCc1ccccc1)C(=O)N[C@@H](CSCc1ccccc1)C(=O)N[C@@H](CCCCNC(=O)[C@H](CSCc1ccccc1)NC(=O)[C@H](CSCc1ccccc1)NC(=O)[C@@H](N)CC[S+](C)[O-])C(=O)N[C@@H](CCCCNC(=O)[C@H](CCCCNC(=O)[C@H](CSCc1ccccc1)NC(=O)[C@H](CSCc1ccccc1)NC(=O)[C@@H](N)CC[S+](C)[O-])NC(=O)[C@H](CSCc1ccccc1)NC(=O)[C@H](CSCc1ccccc1)NC(=O)[C@@H](N)CC[S+](C)[O-])C(=O)NCC(=O)O (stereo partly drawn) [Cripto BP]
inhibitory activity in final library screening ([1]; 30 single peptides B-23-23, 500- to 4000-fold excess, confirmed with HPLC purified molecule): optimal inhibitory activity
IC50 ([1]; estimated, ELISA competition, FIG. 1b, read-out: IC50 for blocking the interaction of Cripto and ALK-4): 400 nM
binding of recombinant Cripto to immobilized peptide [2]: specifically recognized the immobilized Cripto BP, in a dose-dependent manner
KCl-evoked release of DOPAC [3, 4]: significantly increases
KCl-evoked release of dopamine [3, 4]: significantly increases
dopamine turnover (ratio of DOPAC to DA) [3]: able to utilize DA
